Assay results reported in PubChem BioAssay AID2060495 (Molecular Pharmacology Branch, DTP, NCI, 2025).

System: 521955-158-R2-J5-PDC complex spheroid viability
Test: Anticancer human tumor 521955-158-R2-J5-PDC patient-derived pancreatic carcinoma cell line growth inhibition [GQUAD]
Details: for IC50: curve of first compound; for viability, T/C: stronger effect = lower value
Summary of the method: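 Viability of tumor cells grown as complex spheroids with endothelial and stromal cells, exposed to drug combinations. Top concentration at or near clinical Cmax (else 10 microM), diluted in half-log increments.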

[1] = second compound 0.0316 µM, first compound 0.0316 µM
[2] = second compound 0.0316 µM, first compound 0.316 µM
[3] = second compound 0.1 µM, first compound 0.0316 µM
[4] = second compound 0.1 µM, first compound 0.316 µM
[5] = second compound 0.316 µM, first compound 0.0316 µM
[6] = second compound 0.316 µM, first compound 0.316 µM
[7] = second compound 1 µM, first compound 0.0316 µM
[8] = second compound 1 µM, first compound 0.316 µM
[9] = second compound 3.16 µM, first compound 0.0316 µM
[10] = second compound 3.16 µM, first compound 0.316 µM
[11] = second compound 10 µM, first compound 0.0316 µM
[12] = second compound 10 µM, first compound 0.316 µM
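Also: spheroids exposed to agents for one week before reading.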
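For viability, T/C in this document: 100% = DMSO vehicle control viability.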

Molecule `CC(=O)O[C@H]1C(=O)[C@@]2(C)[C@H]([C@H](OC(=O)c3ccccc3)[C@]3(O)C[C@H](OC(=O)[C@H](O)[C@@H](NC(=O)c4ccccc4)c4ccccc4)C(C)=C1C3(C)C)[C@]1(OC(C)=O)CO[C@@H]1C[C@@H]2O` + Cc1cnc(CNC(=O)c2c(=O)c3ccc(N4CCCN(C)CC4)nc3n3c2sc2ccccc23)cn1 has an IC50 (second compound 0.0316 µM) of less than 31.6 nM, an IC50 (second compound 0.1 µM) of less than 31.6 nM and an IC50 (second compound 0.316 µM) of less than 31.6 nM. For the same molecule, the IC50 (second compound 1 µM) was less than 31.6 nM, the IC50 (second compound 3.16 µM) was less than 31.6 nM and the IC50 (second compound 10 µM) was less than 31.6 nM. For the same molecule, the viability, T/C [1] was 23.3%, the viability, T/C (second compound 0.0316 µM, first compound 0.1 µM) was 14.8% and the viability, T/C [2] was 11.8%. The viability, T/C (second compound 0.0316 µM, first compound 1 µM) was 13.7%, the viability, T/C (second compound 0.0316 µM, first compound 3.16 µM) was 11.2% and the viability, T/C (second compound 0.0316 µM, first compound 10 µM) was 12.1%. For the same molecule, the viability, T/C [3] was 24.5%, the viability, T/C (second compound 0.1 µM, first compound 0.1 µM) was 15.2% and the viability, T/C [4] was 15.3%. For the same molecule, the viability, T/C (second compound 0.1 µM, first compound 1 µM) was 10.4%, the viability, T/C (second compound 0.1 µM, first compound 3.16 µM) was 12% and the viability, T/C (second compound 0.1 µM, first compound 10 µM) was 14.6%. The viability, T/C [5] was 24.6%, the viability, T/C (second compound 0.316 µM, first compound 0.1 µM) was 16.7% and the viability, T/C [6] was 12.1%. The viability, T/C (second compound 0.316 µM, first compound 1 µM) was 10.6%, the viability, T/C (second compound 0.316 µM, first compound 3.16 µM) was 12% and the viability, T/C (second compound 0.316 µM, first compound 10 µM) was 12.1%. The viability, T/C [7] was 15.1%, the viability, T/C (second compound 1 µM, first compound 0.1 µM) was 11% and the viability, T/C [8] was 8.58%. For the same molecule, the viability, T/C (second compound 1 µM, first compound 1 µM) was 9.85%, the viability, T/C (second compound 1 µM, first compound 3.16 µM) was 10.3% and the viability, T/C (second compound 1 µM, first compound 10 µM) was 8.46%. The viability, T/C [9] was 9.56%, the viability, T/C (second compound 3.16 µM, first compound 0.1 µM) was 3.21% and the viability, T/C [10] was 0.92%. The viability, T/C (second compound 3.16 µM, first compound 1 µM) was 0.43%, the viability, T/C (second compound 3.16 µM, first compound 3.16 µM) was 0.28% and the viability, T/C (second compound 3.16 µM, first compound 10 µM) was 3.89%. The viability, T/C [11] was 0.14%, the viability, T/C (second compound 10 µM, first compound 0.1 µM) was 2.35% and the viability, T/C [12] was 0.16%. The viability, T/C (second compound 10 µM, first compound 1 µM) was 0.27%, the viability, T/C (second compound 10 µM, first compound 3.16 µM) was 2.45% and the viability, T/C (second compound 10 µM, first compound 10 µM) was 0.15%.
`CCc1c2c(nc3ccc(O)cc13)-c1cc3c(c(=O)n1C2)COC(=O)[C@]3(O)CC` + Cc1cnc(CNC(=O)c2c(=O)c3ccc(N4CCCN(C)CC4)nc3n3c2sc2ccccc23)cn1 gave an IC50 (second compound 0.0316 µM) of 1.04 nM, an IC50 (second compound 0.1 µM) of less than 0.999 nM and an IC50 (second compound 0.316 µM) of less than 0.999 nM. For the same molecule, the IC50 (second compound 1 µM) was less than 0.999 nM, the IC50 (second compound 3.16 µM) was less than 0.999 nM and the IC50 (second compound 10 µM) was less than 0.999 nM. For the same molecule, the viability, T/C (second compound 0.0316 µM, first compound 0.000999 µM) was 51.5%, the viability, T/C (second compound 0.0316 µM, first compound 0.00316 µM) was 15.3% and the viability, T/C (second compound 0.0316 µM, first compound 0.00999 µM) was 11.1%. It also gave a viability, T/C [1] of 6.45%, a viability, T/C (second compound 0.0316 µM, first compound 0.0999 µM) of 6.82% and a viability, T/C [2] of 2.28%. It also gave a viability, T/C (second compound 0.1 µM, first compound 0.000999 µM) of 32.7%, a viability, T/C (second compound 0.1 µM, first compound 0.00316 µM) of 18.6% and a viability, T/C (second compound 0.1 µM, first compound 0.00999 µM) of 12.7%. The viability, T/C [3] was 6%, the viability, T/C (second compound 0.1 µM, first compound 0.0999 µM) was 4.68% and the viability, T/C [4] was 1.38%. It also gave a viability, T/C (second compound 0.316 µM, first compound 0.000999 µM) of 25.2%, a viability, T/C (second compound 0.316 µM, first compound 0.00316 µM) of 15.8% and a viability, T/C (second compound 0.316 µM, first compound 0.00999 µM) of 12.8%. It also gave a viability, T/C [5] of 5.79%, a viability, T/C (second compound 0.316 µM, first compound 0.0999 µM) of 4.66% and a viability, T/C [6] of 0.47%. For the same molecule, the viability, T/C (second compound 1 µM, first compound 0.000999 µM) was 17.1%, the viability, T/C (second compound 1 µM, first compound 0.00316 µM) was 13.5% and the viability, T/C (second compound 1 µM, first compound 0.00999 µM) was 7.77%. It also gave a viability, T/C [7] of 1.4%, a viability, T/C (second compound 1 µM, first compound 0.0999 µM) of 0.12% and a viability, T/C [8] of 0.1%. For the same molecule, the viability, T/C (second compound 3.16 µM, first compound 0.000999 µM) was 13.7%, the viability, T/C (second compound 3.16 µM, first compound 0.00316 µM) was 9.61% and the viability, T/C (second compound 3.16 µM, first compound 0.00999 µM) was 3.83%. The viability, T/C [9] was 0.1%, the viability, T/C (second compound 3.16 µM, first compound 0.0999 µM) was 0.1% and the viability, T/C [10] was 0.14%. The viability, T/C (second compound 10 µM, first compound 0.000999 µM) was 12%, the viability, T/C (second compound 10 µM, first compound 0.00316 µM) was 9.68% and the viability, T/C (second compound 10 µM, first compound 0.00999 µM) was 3.64%. The viability, T/C [11] was 0.13%, the viability, T/C (second compound 10 µM, first compound 0.0999 µM) was 0.17% and the viability, T/C [12] was 0.21%.
